The source of these data is ChEMBL document CHEMBL1129916, “Topoisomerase II inhibitors. Synthetic hybridization of 4-quinolones and anthracyclines” (Bioorg Med Chem Lett, 1997).

One assay has as its system P388. The assay is described as follows: In vitro inhibitory activity against P-388 tumor cells; IA= Inactive. It counts as functional, cell-based, Mus musculus.
The next assay deals with Nucleic Acid. Briefly: Inhibitory against Escherichia coli derived DNA gyrase II as ability to induce strand breakage; IA means Inactive. In kind it is nucleic-acid assay.
The next assay concerns A549. Briefly: In vitro inhibitory activity against A549 tumor cell culture; IA= Inactive. It counts as functional, cell-based, Homo sapiens.
A short description of assay [1]: In vitro activity in agar dilution-streak assay against Gram-negative bacteria at 100 ug/ml; IA means Inactive. In kind it is functional. (Agar dilution tests growth on a series of plates holding different concentrations.)
The next assay relates to Bacteria. The assay is described as follows: In vitro activity in agar dilution-streak assay against Gram-positive bacteria at 100 ug/ml; IA means Inactive. In kind it is functional, organism-based.
A further assay has as its system B16-F10. Briefly: In vitro inhibitory activity against B16F10 tumor cells; IA= Inactive. In kind it is functional, cell-based, Mus musculus.
For the next assay, the system named is HT-29. Briefly: In vitro inhibitory activity against HT-29 tumor cells; IA= inactive. In kind it is functional, cell-based, Homo sapiens.

Calls of active or inactive are those of the source. No cut-off for these calls is given here.

As to `CCN1CC(C(=O)O)C(=O)c2c(O)c3c(c(O)c21)C(=O)c1ccccc1C3=O` (stereo not drawn), the IC50 entry in the assay on P388, in the assay on A549, with B16-F10 and with HT-29 was “Not Active” in each case. For the same compound, the result (in the assay with Nucleic Acid; in assay [1]; with Bacteria) was inactive.

In the case of `O=C1c2ccccc2C(=O)c2c(O)c3c(c(O)c21)C(=O)C(C(=O)O)CN3c1ccc(F)cc1` (stereo not drawn), the IC50 entry in the assay with P388, with A549, with B16-F10 and with HT-29 was “Not Active” each time. Moreover, the result (in the assay with Nucleic Acid; in assay [1]; in the assay with Bacteria) was inactive.

`O=C(O)c1cn(C2CC2)c2cc(N3CCNCC3)c(F)cc2c1=O`: the result (in assay [1]; with Bacteria) was inactive.

Take `O=C1c2ccccc2C(=O)c2c(O)c3c(c(O)c21)C(=O)C(C(=O)O)CN3C1CC1` (stereo not drawn): the IC50 result in the assay with P388, with A549, in the assay on B16-F10 and with HT-29 was “Not Active” in each case. Further, the outcome (with Nucleic Acid; in assay [1]; with Bacteria) was inactive.
